Experimental data published in patent US20250235446A1, “COMPOSITION FOR INHIBITING METASTASIS AND ENHANCING ANTICANCER DRUG SENSITIVITY” (Korea Advanced Institute of Science and Technology, priority 2020, published 2025).

Key:
[1] = tested on: A549 cells; assay: Western blot of phenotype-related proteins (E-CAD, ZEB1) in EMT-induced lung cancer cells; format: cell-based
Description: The activity of TGF-β in a tumor microenvironment performs various functions, such as promoting cancer growth and EMT. Cancer cells were treated with TGF-β, an external stimulus, to induce EMT, and the results were illustrated in FIG. 1. To this end, A549 cells (KCBL No. 10185) as a lung cancer cell line were purchased from the Korean Cell Line Bank (KCLB). EMT was induced by treating the A549 cells with TGF-β (5 ng/mL, Peprotech, Cranbury, NJ, USA) for 48 hours. Changes in protein expression of cancer cells were confirmed through western blot analysis in the following process. First, cells were lysed in a lysis buffer [including 20 mM HEPES, pH 7.2, 150 mM NaCl, 0.5% Triton X-100, 10% glycerol, protease/phosphatase inhibitor mixture (protease/phosphatase inhibitor cocktail (Thermofisher, Waltham, MA))]. The lysate was centrifuged at 13,000 rpm at 4° C. for 20 minutes, and the supernatant was obtained and separated by SDS-PAGE, and then subjected to western blot analysis. To observe the amounts of proteins, E-cadherin (sc-21791), p53 (sc-126), SMAD4 (sc-7966), ZEB1 (sc-515797), mouse IgG (sc-2025) and rabbit IgG (#sc-2027) antibodies (purchased from Santa Cruz Biotechnology (Santa Cruz, CA, USA)) were used. In addition, ERK1/2 (#9102), phospho-ERK1/2 (#9106), phospho-MEK1/2 (#9121) and MYC (#13987) antibodies (Cell Signaling Technology (Beverly, MA, USA)) were used and the amounts of the proteins were observed. In addition, the rabbit polyclonal anti-GAPDH antibody was provided and used from the Korea Research Institute of Bioscience and Biotechnology.
TGF-β-treated cancer cells and -untreated cancer cells were treated with Nutlin-3a (5 μM, Sigma, St. Louis, Mo) to activate p53. It was confirmed whether the epithelial cell phenotype was restored according to p53 activation, and the results were shown in FIG. 2. At this time, after inducing EMT of A549 cells under the same conditions as in Example 1-1, Nutlin-3a (1 μM, Sigma, St. Louis, Mo) was treated, and Western blot and qRT-PCR were performed in the same method as in Example 1-1. […]

[2] = tested on: A549 cells; assay: qRT-PCR of genes related to mesenchymal cells, epithelial cells and stemness; format: cell-based
Description: In addition, qRT-PCR was performed to perform transcript analysis for all genes (n=3, mean±SD). The qRT-PCR analysis was performed using a PCR system (Veriti 96well Thermal Cycler, Applied Biosystems, Waltham, MA, USA), and the qRT-PCR analysis was performed using the QuantStudio 5 real-time PCR system (Applied Biosystems, Foster City, CA), samples containing 20 μL of cDNA, primers, and SYBR Master Mix (Genet Bio, Daejeon, Korea).
TGF-β-treated cancer cells and -untreated cancer cells were treated with Nutlin-3a (5 μM, Sigma, St. Louis, Mo) to activate p53. It was confirmed whether the epithelial cell phenotype was restored according to p53 activation, and the results were shown in FIG. 2. At this time, after inducing EMT of A549 cells under the same conditions as in Example 1-1, Nutlin-3a (1 μM, Sigma, St. Louis, Mo) was treated, and Western blot and qRT-PCR were performed in the same method as in Example 1-1.
In addition, in order to measure cell viability, the A549 cells from which the SMAD4 gene was deleted as described above were seeded in a 96-well plate and after 24 hours, EMT was induced and Nutlin-3a (1 μM) was treated, and then an anticancer drug 5-FU (1 μM) or DOX (0.5 μM) was treated for 5 days. In FIG. 4A, after 5 days, the cells were imaged using IncuCyte ZOOM (Sartorius, Gottingen, Germany), and the cell viability was measured by confluence of adherent living cells using IncuCyte software. In addition, the results were confirmed by qRT-PCR in the same manner as in Example 1-1 and illustrated in FIG. 4B (n=3, mean±SD).
Alternatively, in the same manner as in Example 2, the A549 cells from which the SMAD4 gene was deleted were treated with shRNAs set forth in SEQ ID NO: 2 (shERK1) and SEQ ID NO: 3 (shERK2), thereby deleting the ERK gene. Then, the results were confirmed by western blot analysis or qRT-PCR (n=3, mean±SD).

[3] = A549 cells, TGF-β 5 ng/mL for 48 hours

Molecule	epithelial cell phenotype (E-CAD+/ZEB1−), protein expression ([1]; TGF-β-treated A549 cells (TGF-β maintained))	epithelial cell phenotype (E-CAD+/ZEB1−), protein expression ([1]; TGF-β-untreated A549 cells)	activity of SNAI1 gene (mesenchymal) ([2]; TGF-β-treated A549 cells)	activity of TWIST1 gene (mesenchymal) ([2]; TGF-β-treated A549 cells)	activity of ZEB1 gene (mesenchymal) ([2]; TGF-β-treated A549 cells)	activity of genes CDH1 and EpCAM related to epithelial cells ([2]; TGF-β-treated A549 cells)	expression of the E-cadherin protein [1, 3]	expression of GRHL2 and OVOL1 genes related to epithelial cells [2, 3]	expression of genes CDH1 and EpCAM related to epithelial cells [2, 3]	expression of genes SMAD4, ZEB1, VIM, SNAI1, SNAI2 related to mesenchymal cells [2, 3]
COc1ccc(C2=N[C@@H](c3ccc(Cl)cc3)[C@@H](c3ccc(Cl)cc3)N2C(=O)N2CCNC(=O)C2)c(OC(C)C)c1 [Nutlin-3a]	converged to inactivation of E-CAD and inactivation of ZEB1	restored	suppressed	almost no change	significantly inhibited	rather decreased or still showed the low activity	–	–	–	–
transforming growth factor beta [TGF-β]	–	–	–	–	–	–	reduced	did not show significant changes	reduced	activated
